Reference: US20100056522A1, “INTRAOCULAR PRESSURE-LOWERING AGENT COMPRISING COMPOUND HAVING HISTONE DEACETYLASE INHIBITOR EFFECT AS ACTIVE INGREDIENT” (Santen Pharmaceutical Co., Ltd., priority 2007, published 2010)

Key:
[1] = test system: HDAC (HeLa nuclear extract); assay: Test for evaluation of an HDAC inhibitory effect (HDAC Fluorimetric Assay/Drug Discovery Kit, Biomol); type: biochemical; conditions: final concentration of test compound 30 μM, rates of more than 100% are shown as 100%
Procedure: Using HDAC Fluorimetric Assay/Drug Discovery Kit (manufactured by Biomol), an HDAC inhibitory effect of the present compounds was measured according to the protocol included with the kit. The kit contains Buffer, HeLa nuclear extract (includes an HDAC), Substrate, Developer and Trichostatin A (an HDAC inhibitor).
A test compound was dissolved in dimethyl sulfoxide, whereby a 2 mg/mL solution was prepared. Then, the resulting solution was diluted with Buffer containing 5% dimethyl sulfoxide, whereby a 150 μM test compound solution was prepared.
1) To a 384-well culture plate, the test compound solution was added in an amount of 2 μL per well.
2) HeLa nuclear extract was diluted 30-fold with Buffer. The resulting solution was added in an amount of 3 μL per well and then, incubation was performed at 37° C. for 2 hours.
3) Substrate was diluted 500-fold with Buffer. The resulting solution was added in an amount of 5 μL per well (the final concentration of the test compound was 30 μM) and then, incubation was performed at 37° C. for 10 minutes.
4) Developer was diluted 20-fold with Buffer and Trichostatin A (2 μM) was added to it. The resulting solution was added in an amount of 10 μL per well and then, incubation was performed at room temperature for 15 minutes.
5) The fluorescence intensity of each well was measured using multilabel counter ARVO (manufactured by Wallac) with excitation at 360 nm and emission at 460 nm.
6) A control data was obtained from the same experiment except that Buffer containing 5% DMSO was added instead of the test compound solution as the above-mentioned procedure from 1) to 5).
7) A blank data was obtained from the same experiment except that Buffer containing 5% DMSO was added instead of the test compound solution and that Buffer was added instead of Hela nuclear extract as the above-mentioned procedure from 1) to 5).
Enzyme inhibitory rate (%) was calculated using the following equation.
(Enzyme Inhibitory Rate(%))=100×[1−{(Fluorescence Intensity of Test Compound Solution)−(Florescence Intensity of Blank)}/{(Florescence Intensity of Control)−(Florescence Intensity of Blank)}]

[2] = test system: TM-1 cells (human trabecular meshwork cell line); assay: Test for evaluation of effect of morphological change on trabecular meshwork cells (cell shape index); type: cell-based; conditions: 10 μM, 24 hours, control CSI 0.679, lower CSI indicates greater morphological change
Procedure: As a method for evaluating a cellular morphological change, an evaluation system using the cell shape index (hereinafter referred to as “CSI”) as an index has been reported in The Journal of Clinical Investigation, 103, 1141-1150 (1999). Therefore, according to the method described in the above document, an effect of morphological change by the present compounds on trabecular meshwork cells was evaluated.
A human trabecular meshwork cell line (hereinafter referred to as “TM-1 cells”) reported in Investigative Opthalmology & Visual Science, 43, 151-161 (2002) was used.
Culture medium 1: A reagent was prepared by adding fetal bovine serum (10%), L-glutamine (2 mM), amphotericin B (2.5 μg/mL), and gentamicin (25 μg/mL) to Dulbecco's Modified Eagle Medium (hereinafter referred to as “D-MEM”).
Culture medium 2: Fetal bovine serum (3%), L-glutamine (2 mM), amphotericin B (2.5 μg/mL), and gentamicin (25 μg/mL) were added to D-MEM.
Cell staining liquid: A mixed liquid of Calcein-AM (16 μM) and Hoechst 33342 (40 μM) was prepared by diluting a Calcein-AM solution (cytoplasmic staining reagent, manufactured by Dojindo Laboratories) and a Hoechst 33342 solution (nuclear staining reagent, manufactured by Dojindo Laboratories) with D-MEM containing L-glutamine (2 mM), amphotericin B (2.5 μg/mL), and gentamicin (25 μg/mL).
TM-1 cells subcultured at 37° C. in a 8% carbon dioxide gas atmosphere were treated with a trypsin/EDTA solution (0.05% trypsin and 0.53 mM tetrasodium ethylenediaminetetraacetate) at 24 hours before performing a drug treatment mentioned below and seeded on a 96-well culture plate. The culture medium 1 was used for the subculture of the cells. The culture medium 2 was used for the cell culture after seeding the cells on the plate.
A test compound was dissolved in dimethyl sulfoxide, whereby a 5 mM solution was prepared. Then, the resulting solution was diluted with the culture medium 2, whereby a 200 μM test compound solution was prepared.
It has been reported that Y-27632 which is a Rho kinase inhibitor induces a morphological change in trabecular meshwork cells in Investigative Opthalmology & Visual Science, 42, 137-144 (2001). Therefore, Y-27632 (produced according to the method described in WO 90/05723) was used as a positive control, and dissolved in dimethyl sulfoxide in the same manner as the test compound, whereby a 5 mM solution was prepared, and then, the resulting solution was diluted with the culture medium 2, whereby a 200 μM positive control compound solution was prepared.
1) To a 96-well culture plate, a solution of TM-1 cells adjusted to a cell density of […] was added in an amount of 95 μL (1.5×10^4 cells) per well.
2) Incubation was performed at 37° C. in a 8% carbon dioxide gas atmosphere for 24 hours.
3) The test compound solution or positive control compound solution was added in an amount of 5 μL per well (the final concentration of the test compound or positive control compound was 10 μM). As a control, the culture medium 2 containing dimethyl sulfoxide (4%) was added in an amount of 5 μL per well.
4) Incubation was performed at 37° C. in a 8% carbon dioxide gas atmosphere for 24 hours.
5) The cell staining liquid was added in an amount of 10 μL per well.
6) Incubation was performed at 37° C. in a 8% carbon dioxide gas atmosphere for 1 hour to stain the cells.
7) A 37% formaldehyde solution was added in an amount of 10 μL per well.
8) Incubation was performed at room temperature for 1 hour to fix the cells.
9) Washing with phosphate-buffered saline was performed.
10) Using Array Scan Vti HCS reader (manufactured by Cellomics), images of stained cells magnified with a 20-fold objective lens were captured in 80 fields (10 fields×8 wells) per test compound addition group.
11) CSI was calculated for each cell and an average value was obtained for each test compound addition group.
CSI was calculated using the following equation.
CSI=4π×(Cell Area)/(Cell Perimeter)^2

| SMILES | Enzyme Inhibitory Rate (%) [1] | CSI [2] |
| --- | --- | --- |
| N#Cc1ccc(NC(=O)N(CCCO)Cc2ccc(C(=O)Nc3ccccc3N)nc2)cc1 [Compound 1-24, N-(2-Aminophenyl)-5-[3-(4-cyanophenyl)-1-(3-hydroxypropyl)ureidomethyl]pyridine-2-carboxylic acid amide] | 96% | 0.597 |
| CN(C)CCCN(Cc1ccc(C(=O)Nc2ccccc2N)nc1)C(=O)Nc1nc2ccc(F)cc2s1 [Compound 1-44, N-(2-Aminophenyl)-5-[1-(3-dimethylaminopropyl)-3-(6-fluoro-1,3-benzothiazol-2-yl)ureidomethyl]pyridine-2-carboxylic acid amide] | 98% | 0.554 |
| CN(C)CCCN(Cc1ccc(C(=O)Nc2ccccc2N)nc1)C(=O)Nc1ccc(F)c(F)c1 [Compound 1-4, N-(2-Aminophenyl)-5-[3-(3,4-difluorophenyl)-1-(3-dimethylaminopropyl)ureidomethyl]pyridine-2-carboxylic acid amide] | 100% | 0.556 |
| CN(C)CCCN(Cc1ccc(C(=O)Nc2ccccc2N)nc1)C(=O)Nc1ccc(C#N)cc1 [Compound 1-20, N-(2-Aminophenyl)-5-[3-(4-cyanophenyl)-1-(3-dimethylaminopropyl)ureidomethyl]pyridine-2-carboxylic acid amide] | 99% | 0.516 |
| O=C(/C=C/c1cccc(C(=O)NO)c1)NO [CBHA, N-Hydroxy-3-[3-hydroxyamino-3-oxo-1-propenyl]benzamide, reference compound] | 99% | 0.545 |
| CCN(CC)CCCN(Cc1ccc(C(=O)Nc2ccccc2N)nc1)C(=O)Nc1ccc(F)c([N+](=O)[O-])c1 [Compound 1-51, N-(2-Aminophenyl)-5-[1-(3-diethylaminopropyl)-3-(4-fluoro-3-nitrophenyl)ureidomethyl]pyridine-2-carboxylic acid amide] | 98% | 0.518 |
| CN(C)CCN(Cc1ccc(C(=O)Nc2ccccc2N)nc1)C(=O)Nc1cccc(F)c1 [Compound 1-55, N-(2-Aminophenyl)-5-[1-(2-dimethylaminoethyl)-3-(3-fluorophenyl)ureidomethyl]pyridine-2-carboxylic acid amide] | 98% | 0.525 |
| CN1CCN(CCN(Cc2ccc(C(=O)Nc3ccccc3N)nc2)C(=O)Nc2cccc(F)c2)CC1 [Compound 1-63, N-(2-Aminophenyl)-5-[3-(3-fluorophenyl)-1-[2-(4-methylpiperazin-1-yl)ethyl]ureidomethyl]pyridine-2-carboxylic acid amide] | 97% | 0.521 |
| COc1ccc(NC(=O)N(CCCN(C)C)Cc2ccc(C(=O)Nc3ccccc3N)nc2)cc1 [Compound 1-6, N-(2-Aminophenyl)-5-[1-(3-dimethylaminopropyl)-3-(4-methoxyphenyl)ureidomethyl]pyridine-2-carboxylic acid amide] | 100% | 0.549 |
| CN(C)CCN(Cc1ccc(C(=O)Nc2ccccc2N)nc1)C(=O)Nc1ccc2c(c1)OCCO2 [Compound 1-53, N-(2-Aminophenyl)-5-[3-(2,3-dihydrobenzo[1,4]dioxin-6-yl)-1-(2-dimethylaminoethyl)ureidomethyl]pyridine-2-carboxylic acid amide] | 98% | 0.502 |
| Nc1ccccc1NC(=O)c1ccc(CN(CCCN2CCOCC2)C(=O)Nc2ccc3c(c2)CCO3)cn1 [Compound 1-38, N-(2-Aminophenyl)-5-[3-(2,3-dihydro-1-benzofuran-5-yl)-1-[3-(morpholin-4-yl)propyl]ureidomethyl]pyridine-2-carboxylic acid amide] | 97% | 0.575 |
| CN(C)CCCN(Cc1ccc(C(=O)Nc2ccccc2N)nc1)C(=O)NCC(=O)c1ccccc1 [Compound 1-40, N-(2-Aminophenyl)-5-[1-(3-dimethylaminopropyl)-3-(phenylcarbonylmethyl)ureidomethyl]pyridine-2-carboxylic acid amide] | 97% | 0.572 |

Further lines, with some results ahead:

| Enzyme Inhibitory Rate (%) [1] | SMILES | CSI [2] |
| --- | --- | --- |
| 91% | Nc1ccccc1NC(=O)c1ccc(CN(CCCCCN2CCOCC2)C(=O)NC2CCCC2)cn1 [Compound 1-141, N-(2-Aminophenyl)-5-[3-cyclopentyl-1-[5-(morpholin-4-yl)pentyl]ureidomethyl]pyridine-2-carboxylic acid amide] | 0.515 |
| 97% | COc1ccccc1NC(=O)N(CCCCN1CCOCC1)Cc1ccc(C(=O)Nc2ccccc2N)nc1 [Compound 1-115, N-(2-Aminophenyl)-5-[3-(2-methoxyphenyl)-1-[4-(morpholin-4-yl)butyl]ureidomethyl]pyridine-2-carboxylic acid amide] | 0.467 |
| 100% | Cc1cccc(NC(=O)N(CCCN2CCC(C)CC2)Cc2ccc(C(=O)Nc3ccccc3N)nc2)c1 [Compound 1-116, N-(2-Aminophenyl)-5-[3-(3-methylphenyl)-1-[3-(4-methylpiperidin-1-yl)propyl]ureidomethyl]pyridine-2-carboxylic acid amide] | 0.455 |
| 65% | Cc1ccc(C(=O)c2cc(/C=C/C(=O)NO)n(C)c2)cc1 [MC1293, (E)-N-Hydroxy-3-[1-methyl-4-(4-methylbenzoyl)-1H-pyrrol-2-yl]-2-propenamide, reference compound] | 0.628 |
| 98% | Nc1ccccc1NC(=O)c1ccc(CN(CCCCN2CCOCC2)C(=O)Nc2ccc3c(c2)OCCO3)cn1 [Compound 1-90, N-(2-Aminophenyl)-5-[3-(2,3-dihydrobenzo[1,4]dioxin-6-yl)-1-[4-(morpholin-4-yl)butyl]ureidomethyl]pyridine-2-carboxylic acid amide] | 0.480 |
| 99% | CN1CCN(CCCN(Cc2ccc(C(=O)Nc3ccccc3N)nc2)C(=O)Nc2ccc3c(c2)OCCO3)CC1 [Compound 1-68, N-(2-Aminophenyl)-5-[3-(2,3-dihydrobenzo[1,4]dioxin-6-yl)-1-[3-(4-methylpiperazin-1-yl)propyl]ureidomethyl]pyridine-2-carboxylic acid amide] | 0.502 |
